Results published in US20030229451A1, “Methods and systems for analyzing complex biological systems” (priority 2001, published 2003).

Tests used:
[1] = test system: Saccharomyces cerevisiae wild type strain BY4743; test: AF1 gene expression analysis of yeast cells treated with antifungal drugs; type: cell-based; details: for # Transcripts perturbed: 2x MIC, two hours; for # Pathways Affected by at Least One Gene: p < 0.05
Method: Saccharomyces cerevisiae wild type strain BY4743 was purchased from American Type Culture Center (ATCC, Manassas, Va.). The yeast strain was grown in YPD or SD media. H. […] The cultures started from fresh single colonies were grown in 1.0 ml YPD overnight at 30° C. […] The OD600 was adjusted to 1.0 with YPD media, then 2.0 ml of each was inoculated into three 250 ml flasks, each containing 50 ml of SD media. […] The cells were kept growing for another two hours, then collected by centrifugation at 4000 rpm for 5 minutes at 4° C. Pellets were washed once with ice-cold water, then were lyophilized overnight at 4° C. […] Tubes were vortexed for 30 seconds, then incubated for 10 minutes at room temperature (RT). […] Tubes were incubated for 10 minutes at RT. Samples were centrifuged for 20 minutes as before. Pellets were washed with 400 μl 70% ethanol and centrifuged for 10 minutes as before. The pellet was then dissolved in 100 μl nuclease-free water. RNA quality was determined using the Bioanalyzer 2100 and the RNA 6000 assay (Agilent Technologies, Palo Alto, Calif.) according to manufacturer's instructions. RNA concentrations were determined spectrophotometrically by measuring the absorption at, 260 nm in an Ultrospec 2000 (Pharmacia Biotech, Piscataway, N.J.). […] Labeled cRNAs were evaluated using the RNA 6000 assay on the Agilent Bioanalyzer 2100. Labeled cRNA concentrations were determined spectrophotometrically by measuring the absorption at 260 nm in an Ultrospec 2000 (Pharmacia Biotech, Piscataway, N.J.). […] Each pair of samples to be hybridized were independently labeled and hybridized utilizing a fluor reversal for a total of two hybridizations per sample pair. The microarrays were scanned simultaneously in the Cy3 and Cy5 channels with Agilent's 48-slide, Dual Laser DNA Microarray Scanner (Agilent Technologies, Palo Alto, Calif.) at 10 μm resolution using default settings. Image Analysis Software (Version A.4.0.45, Agilent Technologies, Palo Alto, Calif.) was used for image analysis. Each feature was determined from an array's associated pattern file and a detection algorithm. Intensity values for each feature were determined after subtracting background derived from an average of negative control features. Features with unusual pixel intensity statistics (e.g., high non-uniformity, saturation in either channel, and the like) were excluded from downstream analyses. Data was loaded into the Rosetta RESOLVER database (Rosetta Inpharmatics Inc., Kirkland, Wash.) for storage and analysis. Data was evaluated after combining results from fluor reversal replicate hybridizations. The annotation of yeast ORFs was obtained from Proteome BIOKNOWLEDGE Library (Incyte Genomics, Palo Alto, Calif.). In AF1, two different technologies were utilized: gene expression analysis (for examination of mRNA expression) and metabolite analysis. […] As noted previously, existing metabolic databases may be helpful in practicing the methods and systems of the present invention, but many databases include limitations that make their use in data analysis and pathway mapping less than straightforward. […] This caveat to KEGG makes it difficult to pinpoint the correct pathway when attempting to link a gene to a specific pathway.

[2] = test system: Saccharomyces cerevisiae wild type strain BY4743; test: AF1 combined gene expression and metabolite mapping to reactions and pathways (KEGG); type: cell-based
Excerpt: The pathway score indicates how meaningful the mapping is, or how likely it is to be correctly indicative of the pathway involved in the perturbation under examination. The method provides a pathway score based on perturbation levels of genes and/or compounds and the information content of each gene and/or compound in the pathway, i.e., a pathway score indicates the extent to which other pathways are mapped to a gene/compound. For example, imagine that two genes are perturbed in a particular experiment. One gene maps to only one pathway, giving a high degree of probability that the perturbed pathway is the one identified in the mapping. The second gene maps to three pathways. In the later example, there is only one-third the probability that the pathway identified in the mapping is the one perturbed. The present invention provides a method for calculating the pathway scores, so that more weight is given to a score of a gene or compound that maps to only one pathway than to a score of a gene or compound that maps to multiple pathways. […] Where n=the total number of genes in the pathway; ipath—count=the number of pathways containing a gene; and j=the number of genes in the pathway that are perturbed. Another factor to be considered when weighting a pathway score is the degree of perturbation. Degree of perturbation can be calculated, for example, based on a number of standard deviations from a norm, and included in an equation such as the one shown above, so that not only the number of pathways is taken into account, but also accounts for the amount of gene transcript or compound present as compared to a control. The data were then combined to determine the number of reactions showing an enzyme and at least one compound perturbed, and to determine the number of pathways having at least one enzyme and one perturbed compound perturbed. The results of the analysis are represented in Tables 16 and 17, and were difficult to interpret, illustrating that the ability to draw conclusions from compound mapping to pathways is limited when absent additional data.

| SMILES | # Transcripts perturbed ([1]; P < 0.05) | # Transcripts perturbed ([1]; P < 0.1) | # Pathways Affected by at Least One Gene [1] | # Reactions Having an Enzyme and at Least One Compound Perturbed [2] | Number Of Pathways Having at Least One Enzyme and One Compound Perturbed (# Reactions) [2] |
| --- | --- | --- | --- | --- | --- |
| C[C@@H]1[C@H](O)[C@@H](C)/C=C/C=C/C=C/C=C/C=C/C=C/C=C/[C@H](O[C@@H]2O[C@H](C)[C@@H](O)[C@H](N)[C@@H]2O)C[C@@H]2O[C@](O)(C[C@@H](O)C[C@@H](O)[C@H](O)CC[C@@H](O)C[C@@H](O)CC(=O)O[C@H]1C)C[C@H](O)[C@H]2C(=O)O [Amphoteracin B] | 4363 | 4652 | 97 | 54 | 37 |
| OC(Cn1cncn1)(Cn1cncn1)c1ccc(F)cc1F [Fluconazole] | 1411 | 1719 | 79 | 2 | 15 |
| CC[C@@H]([C@H](C)O)n1ncn(-c2ccc(N3CCN(c4ccc(OC[C@@H]5CO[C@@](Cn6cncn6)(c6ccc(F)cc6F)C5)cc4)CC3)cc2)c1=O [Posaconazole] | 690 | 925 | 69 | 0 | 3 |
